Data set [1] deals with T1, ALK4 (ACVR1B) (Homo sapiens, UniProt P36896).
T1 sequence (P36896 24-505): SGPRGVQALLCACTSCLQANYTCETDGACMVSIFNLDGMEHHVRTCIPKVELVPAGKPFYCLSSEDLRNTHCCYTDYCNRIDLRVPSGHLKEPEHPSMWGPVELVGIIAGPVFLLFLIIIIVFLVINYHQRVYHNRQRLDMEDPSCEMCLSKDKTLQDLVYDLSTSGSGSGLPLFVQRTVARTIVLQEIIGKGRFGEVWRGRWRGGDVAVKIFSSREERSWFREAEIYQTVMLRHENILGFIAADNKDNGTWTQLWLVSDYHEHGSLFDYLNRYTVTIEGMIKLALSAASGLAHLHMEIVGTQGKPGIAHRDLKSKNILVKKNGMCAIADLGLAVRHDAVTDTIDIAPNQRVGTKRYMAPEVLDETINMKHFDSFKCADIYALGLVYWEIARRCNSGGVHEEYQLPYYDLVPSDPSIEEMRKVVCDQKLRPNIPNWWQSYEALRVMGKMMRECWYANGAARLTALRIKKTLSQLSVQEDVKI
The data set can be described thus: KINOMEscan competitive binding assay (Kd). The note with it: analyses herein; read-out: Binding constant (Kd) ALK4 (ACVR1B). On the procedure:
(§1) 5. Methods for In vitro characterizations of HYL001
(§2) Kinase affinity and selectivity
(§3) The affinity of the ALK5 inhibitor HYL001 was determined for the ALK kinase family using the […]
(§4) DNA-tagged kinases and immobilized assay ligands, using quantitative PCR —run by Eurofins/DiscoveryX (Birmingham AL, USA). Dissociation constants were calculated by measuring the amount of kinase captured on the solid support as a function of the test compound concentration. Kd values were obtained by an 11 -point half-log dilution range of 0.5–30,000 nM of inhibitor for ALK1 (ACVRL1), ALK2 (ACVR1), ALK3 (BMPR1A), ALK4 (ACVR1B), ALK6 (BMPR1B), ACVR2B and TGFβ R2. In addition, this technology was used to assess selectivity towards a panel of 97 Kinases (scanEDGE) by Eurofins Panlabs (Grapevine TX, USA).
(§5) The strength of competitive binding, defined as the percentage of binding inhibition of kinases to assay ligan d, was visualized using the TREEspot software (DiscoverRx Corporation) and a selectivity score was calculated (the fraction of non -mutated kinases tested with competitive binding inhibition above threshold percentages 65 […]

For data set [2], the target named is ALK5 (TGFBR1) (Homo sapiens, UniProt P36897). Nature of the data set: KINOMEscan competitive binding assay (Kd). The note with it: analyses herein; HYL001 run twice, average 22.5 nM; read-out: Binding constant (Kd) ALK5 (TGFBR1). The procedure: as §1, §2, §3, §4, §5
Data set [3] deals with Salmonella typhimurium strains TA98, TA100, TA1535 and TA1537. The data set can be described thus: Ames test. Format: cell-based. The procedure: The mutagenic potential of HYL001 was evaluated by the Ames test, assessing its ability to induce reverse mutations in the histidine operon of Salmonella typhimurium strains that allow for detection of both substitution mutations (TA100 and TA1535) and frameshift mutations (TA98 and TA1537). The mutagenic potential of HYL001 was tested at 6 concentrations (semilog 1–320 μg/mL) alone or in the presence of liver S9 fractions. […]
The Ames test was performed at Xenomatrix (Allschwil, Switzerland). Bacteria from the S. typhimurium […]
negative control, for 90 minutes in medium containing sufficient histidine to support approximately two cell divisions. After exposure, the cultures were diluted in pH indicator medium lacking histidine or tryptophan and aliquoted into 48 wells of a 384-well plate. Within two days, cells that have undergone reversion to amino acid prototrophy grow into colonies. The number of wells containing revertant colonies were counted by pH indicator colour change for each dose and compared to a solvent (negative) control. A dose dependent increase in the number of revertant colonies upon exposure to HYL001 would have indicated mutagenicity.
(The Ames test detects mutagens through reverse mutation in bacteria.)

Data set [4] in a line: Plasma pharmacokinetics after single oral administration in mice. Type of data set: in vivo. The note with it: male, mouse, 71 mg/kg. On the procedure:
(§6) We assessed the in vivo pharmacokinetic properties of HYL001 after a single oral administration (dose of 71 mg/kg) in BALB/c mice as well as in Sprague–Dawley (SD) Rats. Liquid chromatography–tandem mass spectrometry (LC/MS/MS) was used for the determination of HYL001 in plasma (Figure S2 and Table 2).
6. Methods for in vivo characterizations of HYL001 […]
WinNonlin software (Version 8.0) […]

A short description of data set [5]: Plasma pharmacokinetics after single oral administration in rats. Type of data set: in vivo, Sprague Dawley rats. The note with it: 71 mg/kg, rats (♂ SD). The procedure:
as §6
6. Methods for in vivo characterizations of HYL001
Similarly, three rats were used in this study. Animals were administered orally with a suspension formulation of […]

The target of data set [6] is T2, ALK6 (BMPR1B) (Homo sapiens, UniProt O00238).
T2 construct: purchased Eurofins/DiscoveryX (KINOMEscan service)
Also on record: method as in earlier work. To be noted: reported data ref 15; read-out: Binding constant (Kd) ALK6 (BMPR1B); cited from earlier work.

Setting [7] is: male, Sprague-Dawley, rat, plasma.

Where “and” joins values, the source holds several entries; their conditions need not be identical. Equal entries are not always repeated.

ALK5 (TGFBR1), sequence (P36897 34-503): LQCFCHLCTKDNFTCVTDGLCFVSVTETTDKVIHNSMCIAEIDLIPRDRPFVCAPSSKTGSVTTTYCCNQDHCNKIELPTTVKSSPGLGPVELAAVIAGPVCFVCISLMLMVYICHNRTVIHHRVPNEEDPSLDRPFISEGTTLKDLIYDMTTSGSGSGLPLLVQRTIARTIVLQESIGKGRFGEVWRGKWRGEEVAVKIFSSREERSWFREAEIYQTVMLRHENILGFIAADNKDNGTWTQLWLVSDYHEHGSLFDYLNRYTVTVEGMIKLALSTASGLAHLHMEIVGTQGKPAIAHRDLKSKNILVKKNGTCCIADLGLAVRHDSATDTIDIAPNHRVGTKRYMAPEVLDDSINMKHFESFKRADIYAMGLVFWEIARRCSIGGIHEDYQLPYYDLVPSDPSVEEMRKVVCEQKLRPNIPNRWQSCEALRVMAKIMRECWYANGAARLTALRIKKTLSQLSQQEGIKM
T2 sequence (O00238 14-502): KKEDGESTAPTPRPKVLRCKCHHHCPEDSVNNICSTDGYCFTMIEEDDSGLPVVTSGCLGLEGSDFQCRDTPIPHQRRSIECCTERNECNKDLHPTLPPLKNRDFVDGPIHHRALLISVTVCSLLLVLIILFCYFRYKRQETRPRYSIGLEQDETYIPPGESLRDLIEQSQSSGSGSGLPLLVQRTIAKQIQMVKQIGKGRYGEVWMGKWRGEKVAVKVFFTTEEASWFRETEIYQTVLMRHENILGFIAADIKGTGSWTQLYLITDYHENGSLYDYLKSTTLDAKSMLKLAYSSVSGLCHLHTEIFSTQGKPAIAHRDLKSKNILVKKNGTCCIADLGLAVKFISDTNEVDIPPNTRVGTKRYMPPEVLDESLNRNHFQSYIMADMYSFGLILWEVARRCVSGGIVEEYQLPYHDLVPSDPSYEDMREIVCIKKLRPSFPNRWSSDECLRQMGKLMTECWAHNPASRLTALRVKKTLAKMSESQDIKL

The Kd is the free concentration of one partner at which half of the binding sites on the other are occupied at equilibrium, for simple one-to-one binding. By half-life is commonly meant how long it takes for the measured level to halve. A low value points to fast loss. As a reminder, the AUC(0-inf) is the area under the concentration-time curve extrapolated to infinity. A low value points to less exposure. Usually AUC(0-t) stands for exposure summed from dosing to a finite time, without extrapolation to infinity. Read a high AUC(0-t) as high exposure. As a reminder, the CL/F is the apparent clearance, not corrected for the fraction that reaches the circulation. The term Cmax denotes the maximum level reached in the sampled fluid or tissue. Usually Tmax stands for the time from dosing to the highest level. For `Cc1cccc(-c2nn3c(c2-c2ccnc4ccc(O)cc24)CCC3)n1` [HYL001, 4-(2-(6-Methylpyridin-2-yl)-5,6-dihydro-4H-pyrrolo[1,2-b]pyrazol-3-yl)quinolin-6-ol], the Kd in data set [1] was 13 nM; in data set [2] it was 25 nM and 22.5 nM. The “Positive mutagenic responses (Ames test)” value in data set [3] (6 concentrations 1–320 μg/mL, alone or with liver S9, all strains) was “No positive mutagenic responses”. The Dose dependency result in data set [3] (TA98, w/o S9) is given as “No”; in data set [3] (TA98, with S9) it was “No”; in data set [3] (TA100, w/o S9), “No”; in data set [3] (TA100, with S9), “No”; in data set [3] (TA1535, w/o S9) it was “No”; in data set [3] (TA1535, with S9) it was “No”. Also, the Dose dependency result in data set [3] (TA1537, w/o S9) was “No”; in data set [3] (TA1537, with S9) it was “No”. For the same compound, the Mutagenic data points entry in data set [3] (TA98, w/o S9) is listed as “No”; in data set [3] (TA98, with S9) it was “No”; in data set [3] (TA100, w/o S9), “No”; in data set [3] (TA100, with S9), “No”; in data set [3] (TA1535, w/o S9) it was “No”; in data set [3] (TA1535, with S9), “No”. The Mutagenic data points result is “No” in data set [3] (TA1537, w/o S9) and “No” in data set [3] (TA1537, with S9). The half-life in data set [4] (BALB/c, po) is ~150 min; in data set [5] (male, Sprague-Dawley, rat, plasma, po), ~300 min. In addition, the AUC(0-inf) in data set [4] (mice (♂ BALB/c)) amounted to 4110 ng·h/mL; in data set [5] (setting [7]) it was 22000 ng·h/mL. Moreover, the exposure AUC(0-t) worked out at 3520 ng·h/mL in data set [4] (mice (♂ BALB/c)) and 21600 ng·h/mL in data set [5] (setting [7]). In addition, the values for the CL/F in data set [4] (mice (♂ BALB/c)) and in data set [5] (setting [7]) were 288 mL/min/kg and 53.8 mL/min/kg, respectively. For the same compound, the highest concentration (Cmax) in data set [4] (mice (♂ BALB/c)) was found to be 2050 ng/mL; in data set [5] (setting [7]) it was 8540 ng/mL. The results for the Tmax in data set [4] (mice (♂ BALB/c)) and in data set [5] (setting [7]) were 15 min and 40.2 min, respectively. Moreover, the Vd/F in data set [4] (mice (♂ BALB/c), read-out: Vss/F) amounted to 66.7 L/kg; in data set [5] (male, Sprague-Dawley, rat, plasma, read-out: Vss/F), 10.8 L/kg. Also, the T1/2 in data set [5] turned out to be 4.8 h.

For `Cc1cccc(-c2nn3c(c2-c2ccnc4ccc(C(N)=O)cc24)CCC3)n1` [galunisertib], in data set [6], the Kd is 471 nM.

Source of the values: PMC11729428, “New Potent Inhibitor of Transforming Growth Factor-Beta (TGFβ) Signaling that is Efficacious against Microsatellite Stable Colorectal Cancer Metastasis in Combination with Immune Checkpoint Therapy in Mice” (ACS Pharmacology & Translational Science, 2024).
